The record followed here is patent publication US20100130457A1, “Phenothiazine Derivatives for Treatment of Asthma” (Immune Control, Inc., priority 2008, published 2010).

The target in one assay is 5-HT2A receptor (Homo sapiens, UniProt P28223). The assay can be described thus: Serotonin-receptor binding assay. The note with it: 10 μM and 0.1 μM. From the text: (§1) The methods employed in this study have been adapted from the scientific literature to maximize reliability and reproducibility. The experiments include contacting a serotonin type 1A, 1B, 1D, 2A, 2B, 2C, 3, 4, 5A, 6, and 7 receptor with a test compound and comparing the level of binding of serotonin or a control compound (e.g., fluphenazine) with that serotonin type 1A, 1B, 1D, 2A, 2B, 2C, 3, 4, 5A, 6, and 7 receptor with the level of serotonin binding or control compound binding with an otherwise identical serotonin type 1A, 1B, 1D, 2A, 2B, 2C, 3, 4, 5A, 6, and 7 receptor not contacted with the test compound. […] The skilled artisan would also appreciate, in view of the disclosure provided herein, that standard binding assays known in the art, or those to be developed in the future, can be used to assess the binding of serotonin or a control compound with a serotonin type 1A, 1B, 1D, 2A, 2B, 2C, 3, 4, 5A, 6, and 7 receptor in the presence or absence of the test compound to identify a useful compound.
5-HT2A receptor, sequence (P28223 whole entry): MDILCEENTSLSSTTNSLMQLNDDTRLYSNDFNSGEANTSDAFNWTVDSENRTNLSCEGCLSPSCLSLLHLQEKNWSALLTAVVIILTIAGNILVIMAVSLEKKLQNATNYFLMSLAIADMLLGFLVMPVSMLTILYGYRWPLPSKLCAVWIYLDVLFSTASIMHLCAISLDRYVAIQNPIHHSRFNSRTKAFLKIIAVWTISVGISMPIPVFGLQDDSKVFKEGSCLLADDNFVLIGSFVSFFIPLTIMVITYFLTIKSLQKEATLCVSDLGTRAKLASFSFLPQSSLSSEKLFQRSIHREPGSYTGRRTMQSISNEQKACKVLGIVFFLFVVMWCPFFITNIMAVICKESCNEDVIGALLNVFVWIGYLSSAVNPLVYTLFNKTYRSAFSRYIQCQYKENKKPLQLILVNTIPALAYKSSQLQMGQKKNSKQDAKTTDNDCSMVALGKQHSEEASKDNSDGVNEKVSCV
(§2) ICI-735 and fluphenazine were tested for selective binding to 1A, 1B, 1D, 2A, 2B, 2C, 3, 4, 5A, 6, and 7 receptors at concentrations of 10 μM and 0.1 μM.

The next assay addresses 5-HT7 receptor (Homo sapiens, UniProt P34969). The assay can be described thus: Serotonin-receptor binding assay. The following applies: 10 μM and 0.1 μM.
From the text: as §1, §2

“Also recorded” adds a separate entry of the source.

5-HT7 receptor, sequence (P34969 whole entry): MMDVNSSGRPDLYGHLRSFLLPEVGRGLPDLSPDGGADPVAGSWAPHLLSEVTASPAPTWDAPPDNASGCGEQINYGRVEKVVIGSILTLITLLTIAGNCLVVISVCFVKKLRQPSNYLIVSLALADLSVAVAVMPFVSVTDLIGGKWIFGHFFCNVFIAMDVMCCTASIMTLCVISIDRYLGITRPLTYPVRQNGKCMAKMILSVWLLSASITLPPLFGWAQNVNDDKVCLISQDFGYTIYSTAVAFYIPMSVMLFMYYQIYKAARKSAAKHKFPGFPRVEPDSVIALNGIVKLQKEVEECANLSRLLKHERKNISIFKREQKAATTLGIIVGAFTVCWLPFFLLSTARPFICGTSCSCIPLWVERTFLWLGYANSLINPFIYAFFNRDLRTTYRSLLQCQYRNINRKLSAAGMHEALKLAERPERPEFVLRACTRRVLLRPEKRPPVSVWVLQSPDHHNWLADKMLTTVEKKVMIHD

As for `NCC(=O)NCCN1CCN(CCCN2c3ccccc3Sc3ccc(C(F)(F)F)cc32)CC1` [ICI-735], the “binding to 5-HT2A receptor as compared to fluphenazine” value on 5-HT2A receptor is given as “decrease activity; also recorded: decreased binding”. In addition, the “binding to 5-HT7 receptor as compared to fluphenazine” value on 5-HT7 receptor is “significant increase activity; also recorded: increased binding”.
